Measurements published in patent publication US8163909B2, “Substituted hydroxyethyl amine compounds as beta-secretase modulators and methods of use” (Amgen Inc., priority 2007, dated 2012).
Like-named read-outs stand apart in the source and are kept apart here.

Key:
[1] = Microsomal stability assay, rat liver microsomes;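 also: rat liver microsomes (0.25 mg/mL) with about 1 µM compound plus 1 mM NADPH, pH 7.4, 37 °C for 30 min, parent left measured by LC-MS/MS against 0 min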
[2] = Microsomal stability assay, human liver microsomes;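 also: pooled human liver microsomes at 0.25 mg/mL with 1 µM compound and NADPH at 37 °C, pH 7.4, for 30 min, unchanged parent quantified by LC-MS/MS against the 0 min sample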
[3] = target: Beta Secretase enzyme (BACE) (Homo sapiens, UniProt P56817); assay: In vitro enzymatic BACE FRET (fluorescence resonance energy transfer) assay; assay type: biochemical;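 also: fluorescence read after 1 h with 50 nM quenched peptide substrate spanning the BACE cleavage site, in pH 4.2 acetate buffer containing 10% DMSO and nonionic detergent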
[4] = system: Abeta peptide; assay: In vivo inhibition of beta-secretase (reduction of Abeta peptide in brain and cerebrospinal fluid); design: species or system rat; conditions: Rattus norvegicus, po, 4 h, orally administered at 30 mg/kg dose, measured after 4 hours;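 also: abeta peptide quantified by sandwich ELISA with electrochemiluminescence readout in rat brain supernatant or CSF, relative to vehicle-dosed control animals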
[5] = target: CYP2D6 (Homo sapiens, UniProt P10635); assay: CYP2D6 inhibition assay (bufuralol, pooled human liver microsomes)
[6] = system: Aβ40 in conditioned medium of cells stably expressing Amyloid Precursor Protein (APP); assay: In vitro BACE cell-based assay (Aβ40 in conditioned medium, sandwich ELISA); conditions: Homo sapiens;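 also: compounds added as a dilution series, secreted peptide quantified by europium time-resolved fluorescence readout, potency fitted from percent of control versus compound concentration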
[7] = target: CYP3A4 (CYP3A) (Homo sapiens, UniProt P08684); assay: in vitro; conditions: microsomes, pH 7.4;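 also: inhibition of CYP3A-mediated 1-hydroxymidazolam formation after 10 min incubation with NADPH, quantified by HPLC MS relative to metabolite produced without test compound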
[8] = BACE enzyme assay, read-out: BACE1 FRET assay
[9] = rat cerebrospinal fluid, read-out: percent reduction of abeta peptide in the cerebrospinal fluid of the rat
[10] = 2D6 IC50 (uM), CYP enzyme inhibition
[11] = HEK293, HEK cells, read-out: HEK cell assay
[12] = read-out: BACE1 FRET assay (IC50)
[13] = HEK293, HEK cells, read-out: HEK cell assay (IC50)
[14] = BACE enzyme assay, IC50's in uM, read-out: BACE1 FRET assay
[15] = 2D6 IC50, CYP enzyme inhibition
[16] = HEK293, cell-based assay, HEK cells, IC50's in uM, read-out: HEK cell assay
[17] = HEK293, HEK cell-based assay, IC50's in uM, read-out: HEK cell assay
[18] = BACE enzyme assay IC50, read-out: BACE1 FRET assay
[19] = 2D6 IC50 (uM), CYP2D6 inhibition
[20] = HEK293, HEK cell-based assay IC50, read-out: HEK cell assay
[21] = rat brain, read-out: percent reduction of abeta peptide in the brain of the rat

Chain of CYP2D6 (P10635 whole entry): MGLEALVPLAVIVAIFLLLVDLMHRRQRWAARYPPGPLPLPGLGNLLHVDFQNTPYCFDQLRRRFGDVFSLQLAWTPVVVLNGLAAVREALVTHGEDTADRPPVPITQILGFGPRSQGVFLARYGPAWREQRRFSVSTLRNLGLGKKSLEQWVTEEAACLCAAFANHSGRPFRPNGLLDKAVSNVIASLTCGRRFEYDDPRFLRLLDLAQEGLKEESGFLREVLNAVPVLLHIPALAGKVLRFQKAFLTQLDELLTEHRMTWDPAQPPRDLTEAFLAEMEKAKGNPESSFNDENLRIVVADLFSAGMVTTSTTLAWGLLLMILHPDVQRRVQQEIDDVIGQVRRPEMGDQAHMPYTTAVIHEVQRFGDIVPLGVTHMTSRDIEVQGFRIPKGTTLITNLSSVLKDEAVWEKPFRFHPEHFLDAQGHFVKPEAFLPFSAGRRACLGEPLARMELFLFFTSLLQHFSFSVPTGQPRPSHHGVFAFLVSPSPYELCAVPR
Chain of CYP3A4 (CYP3A) (P08684 2-503): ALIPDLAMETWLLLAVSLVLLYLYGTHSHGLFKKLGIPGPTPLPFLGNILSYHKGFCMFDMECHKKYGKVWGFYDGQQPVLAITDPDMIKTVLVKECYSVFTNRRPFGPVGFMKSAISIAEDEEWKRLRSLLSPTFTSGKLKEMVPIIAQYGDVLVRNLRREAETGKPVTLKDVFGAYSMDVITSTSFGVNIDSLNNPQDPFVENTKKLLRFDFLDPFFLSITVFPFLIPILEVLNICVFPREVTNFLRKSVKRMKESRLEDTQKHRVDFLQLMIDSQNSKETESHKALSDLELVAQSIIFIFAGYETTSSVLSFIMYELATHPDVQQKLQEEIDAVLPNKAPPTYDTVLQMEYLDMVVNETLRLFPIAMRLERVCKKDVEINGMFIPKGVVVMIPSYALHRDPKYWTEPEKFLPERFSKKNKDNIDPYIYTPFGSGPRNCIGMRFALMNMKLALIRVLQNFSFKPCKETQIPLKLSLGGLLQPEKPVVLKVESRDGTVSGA
Chain of Beta Secretase enzyme (BACE) (P56817 46-501): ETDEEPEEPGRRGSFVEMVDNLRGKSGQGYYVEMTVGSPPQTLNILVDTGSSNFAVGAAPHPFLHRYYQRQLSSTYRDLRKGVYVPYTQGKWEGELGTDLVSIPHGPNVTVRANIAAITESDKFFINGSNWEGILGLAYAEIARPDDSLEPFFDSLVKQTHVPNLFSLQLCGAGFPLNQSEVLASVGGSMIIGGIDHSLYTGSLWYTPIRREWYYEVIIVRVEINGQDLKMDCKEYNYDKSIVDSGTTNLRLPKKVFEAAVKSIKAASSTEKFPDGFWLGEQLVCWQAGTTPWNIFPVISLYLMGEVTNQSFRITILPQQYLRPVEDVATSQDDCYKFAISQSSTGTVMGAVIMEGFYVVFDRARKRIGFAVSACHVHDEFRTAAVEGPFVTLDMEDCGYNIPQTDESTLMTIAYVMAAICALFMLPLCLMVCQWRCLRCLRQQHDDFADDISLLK

Compound: CC(=O)N[C@@H](Cc1cccc(F)c1)[C@H](O)CN[C@H]1CC2(CCC2)Oc2c1cc(CC(C)(C)C)nc2-n1ccnc1 [Example 506]
- RLM ([1]; rat liver microsomal data): 61 µL/min/mg
- HLM ([2]; human liver microsomal data): 14 µL/min/mg
- IC50 [3, 8]: 0.021 µM
- inhibition in vivo at 30 mg/kg [4, 9]: 10 to 80%
- IC50 [5, 10]: 2.2 µM
- IC50 [6, 11]: 0.02 µM
- IC50 [7]: 100 nM

Compound: COCC(=O)N[C@@H](Cc1cc(F)cc(F)c1)[C@H](O)CN[C@H]1CC2(CCC2)Oc2c1cc(CC(C)(C)C)nc2-c1nccn1C [Example 596]
- RLM ([1]; rat liver microsomes): 39 µL/min/mg
- HLM ([2]; human liver microsomes): 26 µL/min/mg
- IC50 [3, 12]: 0.041 µM
- inhibition in vivo at 30 mg/kg [4, 9]: 10 to 80%
- IC50 ([5]; 2D6 IC50, CYP2D6 inhibition): 2.9 µM
- IC50 [6, 13]: 0.009 µM
- IC50 [7]: 100 nM

Compound: COCC(=O)N[C@@H](Cc1cccc(F)c1)[C@H](O)CN[C@H]1CC2(CCC2)Oc2c1cc(CC(C)(C)C)nc2-n1ccnc1 [Example 504]
- RLM ([1]; rat liver microsomal data): 87 µL/min/mg
- HLM ([2]; human liver microsomal data): 16 µL/min/mg
- IC50 [3, 8]: 0.014 µM
- inhibition in vivo at 30 mg/kg [4, 9]: 10 to 80%
- IC50 [5, 10]: 2.3 µM
- IC50 [6, 11]: 0.028 µM
- IC50 [7]: 100 nM

Compound: CO[C@H](C)C(=O)N[C@@H](Cc1cc(F)cc(F)c1)[C@H](O)CN[C@H]1CC2(CCC2)Oc2c1cc(CC(C)(C)C)nc2-c1cncn1C [Example 652]
- RLM ([1]; rat liver microsomes): 50 µL/min/mg
- HLM ([2]; human liver microsomes): 26 µL/min/mg
- IC50 [3, 12]: 0.028 µM
- inhibition in vivo at 30 mg/kg [4, 9]: 10 to 80%
- IC50 ([5]; 2D6 IC50, CYP2D6 inhibition): 2 µM
- IC50 [6, 13]: 0.02 µM
- IC50 [7]: 160 nM

Compound: C#Cc1cccc(C[C@H](NC(=O)[C@@H](C)OC)[C@H](O)CN[C@H]2CC3(CCC3)Oc3ncc(CC(C)(C)C)cc32)c1 [Example 849, (2R)-N-((1S,2R)-3-(((4′S)-6′-(2,2-dimethylpropyl)-3′,4′-dihydrospiro[cyclobutane-1,2′-pyrano[2,3-b]pyridin]-4′-yl)amino)-1-(3-ethynylbenzyl)-2-hydroxypropyl)-2-methoxypropanamide]
- RLM ([1]; rat liver microsomal data): 43 µL/min/mg
- HLM ([2]; human liver microsomal data): 18 µL/min/mg
- IC50 [3, 14]: 0.005 µM
- inhibition in vivo at 30 mg/kg [4, 9]: ≥ 50%
- IC50 [5, 15]: 3.2 µM
- IC50 [6, 16]: 0.008 µM
- IC50 [7]: 50 nM

Compound: CO[C@H](C)C(=O)N[C@@H](Cc1cccc(-c2nccs2)c1)[C@H](O)CN[C@H]1CC2(CCC2)Oc2ncc(CC(C)(C)F)cc21 [Example 831, (2R)-N-((1S,2R)-3-(((4′S)-6′-(2-fluoro-2-methylpropyl)-3′,4′-dihydrospiro[cyclobutane-1,2′-pyrano[2,3-b]pyridin]-4′-yl)amino)-2-hydroxy-1-(3-(1,3-thiazol-2-yl)benzyl)propyl)-2-methoxypropanamide]
- RLM ([1]; rat liver microsomal data): 45 µL/min/mg
- HLM ([2]; human liver microsomal data): 21 µL/min/mg
- IC50 [3, 14]: 0.024 µM
- inhibition in vivo at 30 mg/kg [4, 9]: 10 to 80%
- IC50 [5, 10]: 0.8 µM
- IC50 [6, 17]: 0.047 µM
- IC50 [7]: 200 nM

Compound: CC(=O)N[C@@H](Cc1cc(F)cc(F)c1)[C@H](O)CN[C@H]1CC2(CCC2)Oc2c(-c3ccncc3)cc(CC(C)C)cc21 [Example 673]
- RLM ([1]; rat liver microsomes): 118 µL/min/mg
- HLM ([2]; human liver microsomes): 46 µL/min/mg
- IC50 [3, 18]: 0.009 µM
- inhibition in vivo at 30 mg/kg [4, 9]: 10 to 80%
- IC50 [5, 19]: 0.8 µM
- IC50 [6, 20]: 0.005 µM
- IC50 [7]: ≤ 30 nM

Compound: CO[C@H](C)C(=O)N[C@@H](Cc1ccc(F)c(-c2nccs2)c1)[C@H](O)CN[C@H]1CC2(CCC2)Oc2ncc(CC(C)(C)C)cc21 [Example 690]
- RLM ([1]; rat liver microsomes): 53 µL/min/mg
- HLM ([2]; human liver microsomes): 40 µL/min/mg
- IC50 [3, 18]: 0.011 µM
- inhibition in vivo at 30 mg/kg [4, 21]: 5 to 80%
- IC50 [5, 19]: 0.5 µM
- IC50 [6, 20]: 0.04 µM
- IC50 [7]: 100 nM

Compound: CC(C)(C)Cc1cnc2c(c1)[C@@H](NC[C@@H](O)[C@H](Cc1cc(F)cc(-c3nccs3)c1)NC(=O)C1CCC1)CC1(CCC1)O2 [Example 875]
- RLM ([1]; rat liver microsomal data): 81 µL/min/mg
- HLM ([2]; human liver microsomal data): 65 µL/min/mg
- IC50 [3, 14]: 0.006 µM
- inhibition in vivo at 30 mg/kg [4, 21]: 5 to 80%
- IC50 [5, 15]: 0.3 µM
- IC50 [6, 16]: 0.02 µM
- IC50 [7]: 200 nM

Compound: COCC(=O)N[C@@H](Cc1ccc(F)cc1)[C@H](O)CN[C@H]1CC2(CCC2)Oc2c1cc(CC(C)C)cc2-n1ccnc1 [Example 478]
- RLM ([1]; rat liver microsomal data): 157 µL/min/mg
- HLM ([2]; human liver microsomal data): 24 µL/min/mg
- IC50 ([3]; Table 2, read-out: BACE1 FRET assay): 0.056 µM
- inhibition in vivo at 30 mg/kg [4, 9]: 10 to 80%
- IC50 [5, 15]: 2.2 µM
- IC50 ([6]; HEK293, Table 2, HEK cells, read-out: HEK cell assay): 0.068 µM
- IC50 [7]: 100 nM

Compound: CC(C)(C)Cc1cnc2c(c1)[C@@H](NC[C@@H](O)[C@H](Cc1cc(F)cc(-c3nccs3)c1)NC(=O)[C@@H]1CCCO1)CC1(CCC1)O2 [Example 879]
- RLM ([1]; rat liver microsomal data): 77 µL/min/mg
- HLM ([2]; human liver microsomal data): 96 µL/min/mg
- IC50 [3, 14]: 0.006 µM
- inhibition in vivo at 30 mg/kg [4, 21]: 5 to 80%
- IC50 at 10 min ([5]; human, pooled human liver microsomes, pH 7.4, probe bufuralol, about 5 μM, 2D6 IC50, CYP enzyme inhibition): 600 nM
- IC50 [6, 16]: 0.007 µM
- IC50 [7]: 200 nM

Compound: CO[C@H](C)C(=O)N[C@@H](Cc1cccc(-c2ncco2)c1)[C@H](O)CN[C@H]1CC2(CCC2)Oc2ncc(CC(C)(C)C)cc21 [Example 836, (2R)-N-((1S,2R)-3-(((4′S)-6′-(2,2-dimethylpropyl)-3′,4′-dihydrospiro[cyclobutane-1,2′-pyrano[2,3-b]pyridin]-4′-yl)amino)-2-hydroxy-1-(3-(1,3-oxazol-2-yl)benzyl)propyl)-2-methoxypropanamide]
- RLM ([1]; rat liver microsomal data): 56 µL/min/mg
- HLM ([2]; human liver microsomal data): 56 µL/min/mg
- IC50 [3, 14]: 0.013 µM
- inhibition in vivo at 30 mg/kg [4, 9]: 10 to 80%
- IC50 [5, 10]: 0.7 µM
- IC50 [6, 17]: 0.015 µM
- IC50 [7]: 200 nM

Compound: COCC(=O)N[C@@H](Cc1cccc(-n2ccnc2)c1)[C@H](O)CN[C@H]1CC2(CCC2)Oc2ncc(CC(C)(C)C)cc21 [Example 698, N-((1S,2R)-3-(((4′S)-6′-(2,2-dimethylpropyl)-3′,4′-dihydrospiro[cyclobutane-1,2′-pyrano[2,3-b]pyridin]-4′-yl)amino)-2-hydroxy-1-(3-(1H-imidazol-1-yl)benzyl)propyl)-2-methoxyacetamide]
- RLM ([1]; rat liver microsomes): 33 µL/min/mg
- HLM ([2]; human liver microsomes): 58 µL/min/mg
- IC50 [3, 18]: 0.026 µM
- inhibition in vivo at 30 mg/kg [4, 9]: 10 to 80%
- IC50 [5, 19]: 0.1 µM
- IC50 [6, 20]: 0.009 µM
- IC50 [7]: ≤ 30 nM

Compound: CC(=O)N[C@@H](Cc1cccc(-c2nccs2)c1)[C@H](O)CN[C@H]1CC2(CCC2)Oc2ccc(CC(C)(C)C)cc21 [Example 641, N-((1S,2R)-3-(((4S)-6-(2,2-dimethylpropyl)-3,4-dihydrospiro[chromene-2,1′-cyclobutan]-4-yl)amino)-2-hydroxy-1-(3-(1,3-thiazol-2-yl)benzyl)propyl)acetamide]
- RLM ([1]; rat liver microsomes): 165 µL/min/mg
- HLM ([2]; human liver microsomes): 102 µL/min/mg
- IC50 [3, 12]: 0.006 µM
- inhibition in vivo at 30 mg/kg [4, 9]: 10 to 80%
- IC50 ([5]; 2D6 IC50, CYP2D6 inhibition): 0.3 µM
- IC50 [6, 13]: 0.029 µM
- IC50 [7]: 700 nM

Compound: CC(C)(C)Cc1cnc2c(c1)[C@@H](NC[C@@H](O)[C@H](Cc1ccc3c(c1)OCO3)NC(=O)[C@H]1CCO1)CC1(CCC1)O2 [Example 516, (2R)-N-((1S,2R)-1-(1,3-benzodioxol-5-ylmethyl)-3-(((4′S)-6′-(2,2-dimethylpropyl)-3′,4′-dihydrospiro[cyclobutane-1,2′-pyrano[2,3-b]pyridin]-4′-yl)amino)-2-hydroxypropyl)-2-oxetanecarboxamide]
- RLM ([1]; rat liver microsomal data): 94 µL/min/mg
- HLM ([2]; human liver microsomal data): 31 µL/min/mg
- IC50 [3, 8]: 0.018 µM
- inhibition in vivo at 30 mg/kg [4, 9]: 10 to 80%
- IC50 [5, 10]: 3.3 µM
- IC50 [6, 11]: 0.02 µM
- IC50 [7]: 100 nM

Compound: COCC(=O)N[C@@H](Cc1cc(F)cc(F)c1)[C@H](O)CN[C@H]1CC2(CCC2)Oc2c(-c3ccncc3)cc(CC(C)(C)C)cc21 [Example 488]
- RLM ([1]; rat liver microsomal data): 82 µL/min/mg
- HLM ([2]; human liver microsomal data): 31 µL/min/mg
- IC50 [3, 8]: 0.009 µM
- inhibition in vivo at 30 mg/kg [4, 21]: 5 to 80%
- inhibition in vivo at 30 mg/kg [4, 9]: 10 to 80%
- IC50 [5, 10]: 1.6 µM
- IC50 [6, 11]: 0.01 µM
- IC50 [7]: 100 nM

Compound: COC(OC)C(=O)N[C@@H](Cc1ccc2c(c1)OCO2)[C@H](O)CN[C@H]1CC2(CCC2)Oc2ncc(CC(C)(C)C)cc21 [Example 523, N-((1S,2R)-1-(1,3-benzodioxol-5-ylmethyl)-3-(((4′S)-6′-(2,2-dimethylpropyl)-3′,4′-dihydrospiro[cyclobutane-1,2′-pyrano[2,3-b]pyridin]-4′-yl)amino)-2-hydroxypropyl)-2,2-dimethoxyacetamide]
- RLM ([1]; rat liver microsomal data): 94 µL/min/mg
- HLM ([2]; human liver microsomal data): 37 µL/min/mg
- IC50 [3, 8]: 0.019 µM
- inhibition in vivo at 30 mg/kg [4, 21]: 5 to 80%
- inhibition in vivo at 30 mg/kg [4, 9]: 10 to 80%
- IC50 [5, 10]: 5.4 µM
- IC50 [6, 11]: 0.033 µM
- IC50 [7]: 100 nM

Compound: COCC(=O)N[C@@H](Cc1cccc(C#N)c1)[C@H](O)CN[C@H]1CC2(CCC2)Oc2c(-c3ccncc3)cc(CC(C)(C)C)cc21 [Example 636]
- RLM ([1]; rat liver microsomes): 90 µL/min/mg
- HLM ([2]; human liver microsomes): 32 µL/min/mg
- IC50 [3, 12]: 0.008 µM
- inhibition in vivo at 30 mg/kg [4, 9]: 10 to 80%
- IC50 ([5]; 2D6 IC50, CYP2D6 inhibition): 3 µM
- IC50 [6, 13]: 0.005 µM
- IC50 [7]: 100 nM
